Measurements: patent publication US20100104675A1, “Method Of Treating Demyelinating Central Nervous System Diseases” (priority 2008, published 2010)

How the values were obtained:
[1] = tested on: PLP139-151-immunized SJL mice (EAE); assay: Actively induced EAE in PLP139-151-immunized SJL/J mice, oral treatment; type: in vivo
[2] = tested on: rheumatoid arthritis patients; settings: cited from earlier work
[3] = Example 2, Table 2, TwHF 12.5 mg/kg/d from day 0, triptolide 10 μg/kg/d from day 8, oral
[4] = Example 2, TwHF 12.5 mg/kg/d, triptolide 10 μg/kg/d, vs control

| Structure (SMILES) | Duration (mean duration of disease) [1, 3] | Group score (EAE clinical score 0-6) [1, 3] | Onset [1, 3] | reduction in the duration of the disease [1, 4] | reduction in the group score [1, 4] | ACR20 ([2]; 24 weeks of the Phase 2 trial) | patients with an ACR20 response ([2]; at 2 weeks) |
| --- | --- | --- | --- | --- | --- | --- | --- |
| CC(C)[C@]12O[C@H]1[C@@H]1O[C@]13[C@]1(O[C@H]1C[C@H]1C4=C(CC[C@@]13C)C(=O)OC4)[C@@H]2O [Triptolide, triptolide] | 7.6 ± 1 days | 0.88 ± 0.09 | 13.9 ± 0.95 | 26.2% | 52.5% | – | – |
| O=C(O)c1cc(/N=N/c2ccc(S(=O)(=O)Nc3ccccn3)cc2)ccc1O [sulfasalazine] | – | – | – | – | – | 21.3% | 9.8% |
